Test results: patent US20110183961A1, “AZETIDINE POLYSUBSTITUTED COMPOUNDS, PREPARATION THEREOF, AND THERAPEUTIC APPLICATION THEREOF” (SANOFI-AVENTIS, priority 2008, published 2011)

Legend:
[1] = biological target: T1, human CB1 receptor (Homo sapiens, UniProt P21554); experiment: intracellular cyclic AMP functional test in U373MG cells (HTRF cAMP Dynamic Kit); type: cell-based; conditions: U373MG cells naturally expressing the human CB1 receptor
T1 construct: U373MG cells naturally expressing the human CB1 receptor; endogenous in cells; host or cells: U373MG cells
Procedure: The compounds according to the invention have been the subject of pharmacological assays which make it possible to determine the activity with respect to human CB1-type cannabinoid receptors. The effectiveness of the compounds of formula (I) was determined in a functional test in which the activity of the CB1 cannabinoid receptors is measured (intracellular cyclic AMP test). The test for detecting intracellular cyclic AMP in U373MG cells naturally expressing the human CB1 receptor was carried out as described in the reference: Bouaboula et al., 1995, J. Biol. Chem. 270:13973-13980. The HTRF cAMP Dynamic Kit from CisBio was used to quantify the intracellular cyclic AMP. In this test, the IC50 values are between 0.001 μM and 1 μM.

[2] = biological target: T2, CB1 cannabinoid receptor (Mus musculus, UniProt P47746); experiment: inhibition of gastrointestinal transit induced by racemic CP55,940 in mice (charcoal bolus); type: in vivo; conditions: male CD1 mice, 3 hours after administration of the product, CP55,940 0.15 mg/kg ip
T2 construct: male CD1 mice receive the test product per os; from tissue; host or cells: whole animal, male CD1 mice (gastrointestinal tract)
Procedure: Their antagonist activity was also shown by means of the model of inhibition of gastrointestinal transit induced by racemic CP55,940 (1RS, 3RS, 4RS)-3-[hydroxy-2-(1,1-dimethylheptyl)phenyl]-4-(3-hydroxypropyl)cyclohexan-1-ol) in mice, according to the method described by Rinaldi-Carmona et al., J. Pharmacol. Exp. Ther. 2004, 310, 905-914. Briefly, male CD1 mice receive the test product per os 30 minutes or 2 hours before administration of the racemic CP55,940 agonist ((1RS, 3RS, 4RS)-3-[hydroxy-2-(1,1-dimethylheptyl)phenyl]-4-(3-hydroxypropyl)cyclohexan-1-ol) (0.15 mg/kg ip in 10% cremophor). After a further 30 minutes, the animals receive a charcoal bolus po. Thirty minutes later, the animals are sacrificed by euthanasia (CO2/O2) and the intestine is dissected. The progression of the charcoal bolus in the intestine is expressed as percentage of the total length of the intestine.

T1 sequence (P21554 whole entry): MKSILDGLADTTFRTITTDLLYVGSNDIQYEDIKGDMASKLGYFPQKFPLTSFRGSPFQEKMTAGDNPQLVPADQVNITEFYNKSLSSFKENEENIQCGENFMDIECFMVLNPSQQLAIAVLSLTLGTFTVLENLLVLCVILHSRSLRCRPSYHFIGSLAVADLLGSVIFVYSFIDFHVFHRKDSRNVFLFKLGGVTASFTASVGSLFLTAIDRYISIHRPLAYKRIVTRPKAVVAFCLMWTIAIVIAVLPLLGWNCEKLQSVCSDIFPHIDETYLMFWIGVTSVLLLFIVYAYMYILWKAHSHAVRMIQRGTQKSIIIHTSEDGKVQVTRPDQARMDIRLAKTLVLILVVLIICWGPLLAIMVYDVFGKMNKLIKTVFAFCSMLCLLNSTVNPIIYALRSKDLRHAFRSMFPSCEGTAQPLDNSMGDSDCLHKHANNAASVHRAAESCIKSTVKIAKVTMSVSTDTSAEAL
T2 sequence (P47746 whole entry): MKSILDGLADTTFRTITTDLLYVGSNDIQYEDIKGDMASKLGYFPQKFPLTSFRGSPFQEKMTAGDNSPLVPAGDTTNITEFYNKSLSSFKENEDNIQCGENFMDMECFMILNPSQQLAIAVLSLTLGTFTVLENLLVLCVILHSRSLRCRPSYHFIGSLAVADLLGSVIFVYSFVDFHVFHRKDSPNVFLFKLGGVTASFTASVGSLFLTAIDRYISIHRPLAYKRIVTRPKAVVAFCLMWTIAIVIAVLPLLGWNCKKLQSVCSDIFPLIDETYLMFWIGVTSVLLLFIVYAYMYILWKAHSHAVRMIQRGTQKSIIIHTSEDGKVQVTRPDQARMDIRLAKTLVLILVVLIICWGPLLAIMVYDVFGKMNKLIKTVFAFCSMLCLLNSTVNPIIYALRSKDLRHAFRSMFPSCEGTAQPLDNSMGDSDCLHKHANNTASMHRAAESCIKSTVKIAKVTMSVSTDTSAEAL

SMILES	melting point [°C]	IC50 [1] [nM]	further results
CCN1CCCC1CNC(=O)c1cccc(N(C2CN(C(c3ccc(Cl)cc3)c3ccc(Cl)cc3)C2)S(C)(=O)=O)c1 (single isomer, unassigned; (+)) [Compound No. 6, (+)-3-[{1[bis(4-Chlorophenyl)methyl]azetidin-3-yl}(methyl-sulphonyl)amino]-N-{[1-ethylpyrrolidin-2-yl]methyl}benzamide]	122		
CCN1CCCC1CNC(=O)c1cccc(N(C2CN(C(c3ccc(Cl)cc3)c3ccc(Cl)cc3)C2)S(C)(=O)=O)c1 (single isomer, unassigned; (-)) [Compound No. 5, (−)-3-[{1-[bis(4-Chlorophenyl)methyl]azetidin-3-yl}(methyl-sulphonyl)amino]-N-{[1-ethylpyrrolidin-2-yl]methyl}benzamide]	128		percentage inhibition, gastrointestinal transit model ([2]; 1 mg/kg per os): 39%
CS(=O)(=O)N(c1cccc(C(=O)NC2CCS(=O)(=O)C2)c1)C1CN(C(c2ccc(Cl)cc2)c2ccc(Cl)cc2)C1 (centres unmarked) [Compound No. 2, 3-[{1-[bis(4-Chlorophenyl)methyl]azetidin-3-yl}(methylsulphonyl)amino]-N-(1,1-dioxidotetrahydrothiophen-3-yl)benzamide]		47	percentage inhibition, gastrointestinal transit model ([2]; 2 mg/kg per os): 57%

Continued, in another order:

melting point [°C]	IC50 [1] [nM]	SMILES	further results
	9	CS(=O)(=O)N(c1cc(F)cc(C(=O)NC2CCNC2=O)c1)C1CN(C(c2ccc(Cl)cc2)c2ccc(Cl)cc2)C1 (centres unmarked) [Compound No. 14, 3-[{1[bis(4-Chlorophenyl)methyl]azetidin-3-yl}(methyl-sulphonyl)amino]-5-fluoro-N-(2-oxopyrrolidin-3-yl)benzamide]	
130	130	CS(=O)(=O)N(c1cccc(C(=O)NCCN2CCNC2=O)c1)C1CN(C(c2ccc(Cl)cc2)c2ccc(Cl)cc2)C1 [compound 9, 3-[{1-[bis(4-chlorophenyl)methyl]azetidin-3-yl}(methylsulphonyl)amino]-N-[2-(2-oxoimidazolidin-1-yl)ethyl]benzamide]	
210		CS(=O)(=O)N(c1cccc(C(=O)NC2CCSCC2)c1)C1CN(C(c2ccc(Cl)cc2)c2ccc(Cl)cc2)C1 [compound 10, 3-[{1-[bis(4-chlorophenyl)methyl]azetidin-3-yl}(methylsulphonyl)amino]-N-(tetrahydro-2H-thiopyran-4-yl)benzamide]	
	7	CS(=O)(=O)N(c1cc(F)cc(C(=O)NC2CCNC2=O)c1)C1CN(C(c2ccc(Cl)cc2)c2ccc(Cl)cc2)C1 (single isomer, unassigned; (-)) [Compound No. 16, (−)-3-[{1-[bis(4-Chlorophenyl)methyl]azetidin-3-yl}(methylsulphonyl)amino]-5-fluoro-N-[2-oxopyrrolidin-3-yl]benzamide]	
270		CS(=O)(=O)N(c1cccc(C(=O)NC2CCS(=O)(=O)CC2)c1)C1CN(C(c2ccc(Cl)cc2)c2ccc(Cl)cc2)C1 [compound 11, 3-[{1-[bis(4-chlorophenyl)methyl]azetidin-3-yl}(methylsulphonyl)amino]-N-(1,1-dioxidotetrahydro-2H-thiopyran-4-yl)benzamide]	
